Target: T1, active p38 alpha enzyme (Upstate Biotechnology) (Homo sapiens, UniProt Q16539)
T1 construct: purchased Upstate Biotechnology
Test: p38α biochemical assay (ATP turnover, luminescent detection, Cambrex PKlight)
Conditions: p38α kinase; Table 1 Biological Activity
In short: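 p38α + MapkapK2 (whole protein substrate) + 1.4 uM ATP final; Tris/MOPS buffer with MgCl2, CaCl2, EGTA, EDTA, glycerol, β-ME, BSA; 2 h at 30C; luminescent detection of remaining ATP.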

T1 sequence (Q16539 whole entry): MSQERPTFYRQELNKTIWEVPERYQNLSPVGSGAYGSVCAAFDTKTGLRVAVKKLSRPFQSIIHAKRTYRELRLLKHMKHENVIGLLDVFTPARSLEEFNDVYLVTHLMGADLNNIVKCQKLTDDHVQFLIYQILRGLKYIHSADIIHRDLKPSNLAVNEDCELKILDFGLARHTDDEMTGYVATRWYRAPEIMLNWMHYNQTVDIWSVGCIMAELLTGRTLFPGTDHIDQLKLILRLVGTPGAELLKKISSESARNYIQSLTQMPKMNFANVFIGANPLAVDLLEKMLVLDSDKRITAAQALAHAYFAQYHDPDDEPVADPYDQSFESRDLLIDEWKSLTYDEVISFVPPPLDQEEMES

IC50	Compound
≤ 1000 nM	CC(C)NC(=O)c1csc(-c2oc(CNCc3ccccn3)nc2-c2ccc(F)cc2)n1 [Example 1086]
> 1000 nM	CC(C)NC(=O)c1csc(-c2oc(CNCc3ccncc3)nc2-c2ccc(F)cc2)n1 [Example 1087]
> 1000 nM	CC(C)NC(=O)c1csc(-c2oc(CNCc3cccs3)nc2-c2ccc(F)cc2)n1 [Example 1088]
> 1000 nM	CC1CCC(NCc2nc(-c3ccc(F)cc3)c(-c3nc(C(=O)NC(C)C)cs3)o2)CC1 (stereo not drawn) [Example 1089]
> 1000 nM	CC(C)NC(=O)c1csc(-c2oc(CNCC3CCCCC3)nc2-c2ccc(F)cc2)n1 [Example 1090]
> 1000 nM	CC(C)NC(=O)c1csc(-c2oc(CNC3CCCCCC3)nc2-c2ccc(F)cc2)n1 [Example 1091]
> 1000 nM	CC(C)NC(=O)c1csc(-c2oc(CNC3CCCCC3C)nc2-c2ccc(F)cc2)n1 (stereo not drawn) [Example 1092]
> 1000 nM	CC(C)NC(=O)c1csc(-c2oc(CNCCN3CCCC3)nc2-c2ccc(F)cc2)n1 [Example 1093]
> 1000 nM	CC(C)NC(=O)c1csc(-c2oc(CNN3CCN(C)CC3)nc2-c2ccc(F)cc2)n1 [Example 1094]
> 1000 nM	CCN(CC)CCNCc1nc(-c2ccc(F)cc2)c(-c2nc(C(=O)NC(C)C)cs2)o1 [Example 1095]
> 1000 nM	Cc1cccc(CNCc2nc(-c3ccc(F)cc3)c(-c3nc(C(=O)NC(C)C)cs3)o2)c1 [Example 1096]
> 1000 nM	CC(C)NC(=O)c1csc(-c2oc(CN[C@@H](C)c3ccccc3)nc2-c2ccc(F)cc2)n1 [Example 1097]
> 1000 nM	CC(C)NC(=O)c1csc(-c2oc(CN[C@H](C)c3ccccc3)nc2-c2ccc(F)cc2)n1 [Example 1098]
> 1000 nM	CC(C)NC(=O)c1csc(-c2oc(CNCCc3ccccc3)nc2-c2ccc(F)cc2)n1 [Example 1099]
> 1000 nM	Cc1ccccc1CNCc1nc(-c2ccc(F)cc2)c(-c2nc(C(=O)NC(C)C)cs2)o1 [Example 1100]
> 1000 nM	Cc1ccc(CNCc2nc(-c3ccc(F)cc3)c(-c3nc(C(=O)NC(C)C)cs3)o2)cc1 [Example 1101]
> 1000 nM	Cc1cnc(CNCc2nc(-c3ccc(F)cc3)c(-c3nc(C(=O)NC(C)C)cs3)o2)cn1 [Example 1102]
> 1000 nM	CC(C)NC(=O)c1csc(-c2oc(CNCc3cccc(F)c3)nc2-c2ccc(F)cc2)n1 [Example 1103]
> 1000 nM	CC(C)NC(=O)c1csc(-c2oc(CNCc3ccc(F)cc3)nc2-c2ccc(F)cc2)n1 [Example 1104]
> 1000 nM	CC(C)NC(=O)c1csc(-c2oc(CNCc3ccccc3F)nc2-c2ccc(F)cc2)n1 [Example 1105]
> 1000 nM	CC(C)NC(=O)c1csc(-c2oc(CNCCCn3ccnc3)nc2-c2ccc(F)cc2)n1 [Example 1106]
> 1000 nM	CC(C)NC(=O)c1csc(-c2oc(CNCCC3CCCN3C)nc2-c2ccc(F)cc2)n1 (stereo not drawn) [Example 1107]
> 1000 nM	CC(C)NC(=O)c1csc(-c2oc(CNCCN3CCCCC3)nc2-c2ccc(F)cc2)n1 [Example 1108]
> 1000 nM	CC(C)CCCC(C)NCc1nc(-c2ccc(F)cc2)c(-c2nc(C(=O)NC(C)C)cs2)o1 (stereo not drawn) [Example 1109]
> 1000 nM	CC(C)NC(=O)c1csc(-c2oc(CNCCN3CCOCC3)nc2-c2ccc(F)cc2)n1 [Example 1110]

IC50	Compound
> 1000 nM	CCOC(=O)CC(C)NCc1nc(-c2ccc(F)cc2)c(-c2nc(C(=O)NC(C)C)cs2)o1 (stereo not drawn) [Example 1111]
> 1000 nM	CC(C)NC(=O)c1csc(-c2oc(CNC3CCc4ccccc43)nc2-c2ccc(F)cc2)n1 (stereo not drawn) [Example 1112]
> 1000 nM	CC1=CCC(CCNCc2nc(-c3ccc(F)cc3)c(-c3nc(C(=O)NC(C)C)cs3)o2)C=C1 (stereo not drawn) [Example 1113]
> 1000 nM	Cc1ccc(C)c(CNCc2nc(-c3ccc(F)cc3)c(-c3nc(C(=O)NC(C)C)cs3)o2)c1 [Example 1114]
> 1000 nM	Cc1ccc([C@H](C)NCc2nc(-c3ccc(F)cc3)c(-c3nc(C(=O)NC(C)C)cs3)o2)cc1 [Example 1115]
> 1000 nM	Cc1ccc([C@@H](C)NCc2nc(-c3ccc(F)cc3)c(-c3nc(C(=O)NC(C)C)cs3)o2)cc1 [Example 1116]
> 1000 nM	CC(C)NC(=O)c1csc(-c2oc(CNCC(C)c3ccccc3)nc2-c2ccc(F)cc2)n1 (stereo not drawn) [Example 1117]
> 1000 nM	CC(C)NC(=O)c1csc(-c2oc(CNCC(C)c3ccccc3)nc2-c2ccc(F)cc2)n1 (stereo not drawn) [Example 1118]
> 1000 nM	CC(C)NC(=O)c1csc(-c2oc(CNCCCc3ccccc3)nc2-c2ccc(F)cc2)n1 [Example 1119]
> 1000 nM	Cc1ccc(CNCc2nc(-c3ccc(F)cc3)c(-c3nc(C(=O)NC(C)C)cs3)o2)cc1C [Example 1120]
> 1000 nM	CC(C)NC(=O)c1csc(-c2oc(CNC(C)Cc3ccncc3)nc2-c2ccc(F)cc2)n1 (stereo not drawn) [Example 1121]
≤ 1000 nM	CC(C)NC(=O)c1csc(-c2oc(CNCCc3ccc(O)cc3)nc2-c2ccc(F)cc2)n1 [Example 1122]
> 1000 nM	CC(C)NC(=O)c1csc(-c2oc(CNCCOc3ccccc3)nc2-c2ccc(F)cc2)n1 [Example 1123]
> 1000 nM	COc1ccccc1CNCc1nc(-c2ccc(F)cc2)c(-c2nc(C(=O)NC(C)C)cs2)o1 [Example 1124]
> 1000 nM	COc1ccc(CNCc2nc(-c3ccc(F)cc3)c(-c3nc(C(=O)NC(C)C)cs3)o2)cc1 [Example 1125]
> 1000 nM	COc1cccc(CNCc2nc(-c3ccc(F)cc3)c(-c3nc(C(=O)NC(C)C)cs3)o2)c1 [Example 1126]
> 1000 nM	CC(C)NC(=O)c1csc(-c2oc(CNCCc3ccc(F)cc3)nc2-c2ccc(F)cc2)n1 [Example 1127]
> 1000 nM	CC(C)NC(=O)c1csc(-c2oc(CNCCc3ccccc3F)nc2-c2ccc(F)cc2)n1 [Example 1128]
> 1000 nM	CC(C)NC(=O)c1csc(-c2oc(CNCCc3cccc(F)c3)nc2-c2ccc(F)cc2)n1 [Example 1129]
> 1000 nM	CC(C)NC(=O)c1csc(-c2oc(CNCc3cccc(Cl)c3)nc2-c2ccc(F)cc2)n1 [Example 1130]
> 1000 nM	CC(C)NC(=O)c1csc(-c2oc(CNCc3ccccc3Cl)nc2-c2ccc(F)cc2)n1 [Example 1131]
> 1000 nM	CC(C)NC(=O)c1csc(-c2oc(CNCc3ccc(Cl)cc3)nc2-c2ccc(F)cc2)n1 [Example 1132]
> 1000 nM	CC(C)NC(=O)c1csc(-c2oc(CNCCCN3CCCC3=O)nc2-c2ccc(F)cc2)n1 [Example 1133]
> 1000 nM	CC(C)NC(=O)c1csc(-c2oc(CNCc3ccc(F)cc3F)nc2-c2ccc(F)cc2)n1 [Example 1134]
> 1000 nM	CC(C)NC(=O)c1csc(-c2oc(CNCc3ccc(F)c(F)c3)nc2-c2ccc(F)cc2)n1 [Example 1135]

IC50	Compound
> 1000 nM	CC(C)NC(=O)c1csc(-c2oc(CNCc3cc(F)cc(F)c3)nc2-c2ccc(F)cc2)n1 [Example 1136]
> 1000 nM	CC(C)NC(=O)c1csc(-c2oc(CNCCCN3CCOCC3)nc2-c2ccc(F)cc2)n1 [Example 1137]
> 1000 nM	CC(C)NC(=O)c1csc(-c2oc(CNCCN(C(C)C)C(C)C)nc2-c2ccc(F)cc2)n1 [Example 1138]
> 1000 nM	CC(C)NC(=O)c1csc(-c2oc(CNC3CCCc4ccccc43)nc2-c2ccc(F)cc2)n1 (stereo not drawn) [Example 1139]
> 1000 nM	CC(C)NC(=O)c1csc(-c2oc(CNC(C)CCc3ccccc3)nc2-c2ccc(F)cc2)n1 (stereo not drawn) [Example 1140]
> 1000 nM	CC(C)NC(=O)c1csc(-c2oc(CNCc3ccc(C(C)C)cc3)nc2-c2ccc(F)cc2)n1 [Example 1141]
> 1000 nM	CC(C)NC(=O)c1csc(-c2oc(CNCc3ccc4c(c3)OCO4)nc2-c2ccc(F)cc2)n1 [Example 1142]
> 1000 nM	COc1cccc(CCNCc2nc(-c3ccc(F)cc3)c(-c3nc(C(=O)NC(C)C)cs3)o2)c1 [Example 1143]
> 1000 nM	CC(C)NC(=O)c1csc(-c2oc(CN[C@H](CO)Cc3ccccc3)nc2-c2ccc(F)cc2)n1 [Example 1144]
> 1000 nM	COc1ccc(CCNCc2nc(-c3ccc(F)cc3)c(-c3nc(C(=O)NC(C)C)cs3)o2)cc1 [Example 1145]
> 1000 nM	COc1ccccc1CCNCc1nc(-c2ccc(F)cc2)c(-c2nc(C(=O)NC(C)C)cs2)o1 [Example 1146]
> 1000 nM	CCOc1ccccc1CNCc1nc(-c2ccc(F)cc2)c(-c2nc(C(=O)NC(C)C)cs2)o1 [Example 1147]
> 1000 nM	COc1ccc(NCc2nc(-c3ccc(F)cc3)c(-c3nc(C(=O)NC(C)C)cs3)o2)cc1OC [Example 1148]
> 1000 nM	CC(C)NC(=O)c1csc(-c2oc(CNCCc3ccccc3Cl)nc2-c2ccc(F)cc2)n1 [Example 1149]
> 1000 nM	CC(C)NC(=O)c1csc(-c2oc(CNCCc3ccc(Cl)cc3)nc2-c2ccc(F)cc2)n1 [Example 1150]
> 1000 nM	CC(C)NC(=O)c1csc(-c2oc(CNCCc3cccc(Cl)c3)nc2-c2ccc(F)cc2)n1 [Example 1151]
> 1000 nM	CC(C)NC(=O)c1csc(-c2oc(CNC3CC(C)(C)NC(C)(C)C3)nc2-c2ccc(F)cc2)n1 [Example 1152]
> 1000 nM	CCN(CC)CCCC(C)NCc1nc(-c2ccc(F)cc2)c(-c2nc(C(=O)NC(C)C)cs2)o1 (stereo not drawn) [Example 1153]
> 1000 nM	CC(C)NC(=O)c1csc(-c2oc(CNCc3ccc(F)c(Cl)c3)nc2-c2ccc(F)cc2)n1 [Example 1154]
> 1000 nM	CC(C)NC(=O)c1csc(-c2oc(CN(CCC#N)Cc3ccccc3)nc2-c2ccc(F)cc2)n1 [Example 1155]
> 1000 nM	CC(C)NC(=O)c1csc(-c2oc(CNCCNC(=O)OC(C)(C)C)nc2-c2ccc(F)cc2)n1 [Example 1156]
> 1000 nM	CC(C)NC(=O)c1csc(-c2oc(CNCCc3c[nH]c4ccccc34)nc2-c2ccc(F)cc2)n1 [Example 1157]
> 1000 nM	CC(C)NC(=O)c1csc(-c2oc(CNCc3ccc(C(C)(C)C)cc3)nc2-c2ccc(F)cc2)n1 [Example 1158]
> 1000 nM	CC(C)NC(=O)c1csc(-c2oc(CNCCCN(C)c3ccccc3)nc2-c2ccc(F)cc2)n1 [Example 1159]
> 1000 nM	CC(C)NC(=O)c1csc(-c2oc(CNCC3(O)CCCCC3)nc2-c2ccc(F)cc2)n1 [Example 1160]

From patent US20060252807A1, “Novel ortho-terphenyl inhibitors of p38 kinase and methods of treating inflammatory disorders” (Kalypsys, Inc., priority 2005, published 2006)
